The values that follow come from ChEMBL document CHEMBL1158264, “DNA topoisomerase I inhibitors: cytotoxic flavones from Lethedon tannaensis” (J Nat Prod, 1996).

≈ marks a conversion by molar mass, not a printed value. Calls of active or inactive are those of the source. The calls are words filed in the database; no cut-off is given here.

The test system of assay [1] is P388. The experiment in a line: Cytotoxicity against mouse P388 cells at 100 ug/mL. It is filed as functional, cell-based.
The test system of a further assay is KB. The assay can be described thus: Cytotoxicity against human KB cells. It is filed as functional, cell-based.
The species named for assay [2] is Bos taurus. The assay can be described thus: Inhibition of calf thymus DNA topoisomerase 1 assessed as minimum efficient dose.
The species named for assay [3] is Bos taurus. The assay can be described thus: Inhibition of calf thymus tubulin assembly.
Assay [4] concerns the target T1, DNA topoisomerase 1 (Homo sapiens) (UniProt P11387).
T1 sequence (whole entry): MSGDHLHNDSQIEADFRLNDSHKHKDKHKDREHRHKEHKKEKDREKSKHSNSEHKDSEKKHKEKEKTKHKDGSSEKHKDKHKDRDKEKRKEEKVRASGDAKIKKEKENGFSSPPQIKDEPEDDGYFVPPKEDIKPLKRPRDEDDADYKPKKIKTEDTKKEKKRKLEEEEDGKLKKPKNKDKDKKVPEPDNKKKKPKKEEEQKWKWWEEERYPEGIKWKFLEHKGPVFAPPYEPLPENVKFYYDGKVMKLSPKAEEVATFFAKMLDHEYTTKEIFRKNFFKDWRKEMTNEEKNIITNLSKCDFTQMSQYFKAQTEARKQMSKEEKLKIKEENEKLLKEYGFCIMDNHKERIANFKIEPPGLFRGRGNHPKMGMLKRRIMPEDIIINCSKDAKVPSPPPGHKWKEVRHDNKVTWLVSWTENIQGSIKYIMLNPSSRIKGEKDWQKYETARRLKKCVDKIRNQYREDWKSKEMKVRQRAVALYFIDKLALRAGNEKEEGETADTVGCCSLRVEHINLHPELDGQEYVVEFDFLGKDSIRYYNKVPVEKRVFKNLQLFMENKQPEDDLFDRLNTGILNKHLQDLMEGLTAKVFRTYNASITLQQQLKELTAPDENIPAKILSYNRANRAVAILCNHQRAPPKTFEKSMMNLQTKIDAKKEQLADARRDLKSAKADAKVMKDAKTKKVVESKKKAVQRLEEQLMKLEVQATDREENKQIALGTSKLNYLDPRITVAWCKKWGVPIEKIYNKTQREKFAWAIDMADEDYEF
The assay can be described thus: Inhibition of DNA topoisomerase 1.

Assay [5] concerns the target DNA topoisomerase 2-alpha (Homo sapiens) (UniProt P11388). The assay can be described thus: Inhibition of DNA topoisomerase 2.
Assay [6] has as its system P388. The assay can be described thus: Cytotoxicity against mouse P388 cells. It is filed as functional, cell-based.

Chain of DNA topoisomerase 2-alpha (Homo sapiens) (P11388 whole entry): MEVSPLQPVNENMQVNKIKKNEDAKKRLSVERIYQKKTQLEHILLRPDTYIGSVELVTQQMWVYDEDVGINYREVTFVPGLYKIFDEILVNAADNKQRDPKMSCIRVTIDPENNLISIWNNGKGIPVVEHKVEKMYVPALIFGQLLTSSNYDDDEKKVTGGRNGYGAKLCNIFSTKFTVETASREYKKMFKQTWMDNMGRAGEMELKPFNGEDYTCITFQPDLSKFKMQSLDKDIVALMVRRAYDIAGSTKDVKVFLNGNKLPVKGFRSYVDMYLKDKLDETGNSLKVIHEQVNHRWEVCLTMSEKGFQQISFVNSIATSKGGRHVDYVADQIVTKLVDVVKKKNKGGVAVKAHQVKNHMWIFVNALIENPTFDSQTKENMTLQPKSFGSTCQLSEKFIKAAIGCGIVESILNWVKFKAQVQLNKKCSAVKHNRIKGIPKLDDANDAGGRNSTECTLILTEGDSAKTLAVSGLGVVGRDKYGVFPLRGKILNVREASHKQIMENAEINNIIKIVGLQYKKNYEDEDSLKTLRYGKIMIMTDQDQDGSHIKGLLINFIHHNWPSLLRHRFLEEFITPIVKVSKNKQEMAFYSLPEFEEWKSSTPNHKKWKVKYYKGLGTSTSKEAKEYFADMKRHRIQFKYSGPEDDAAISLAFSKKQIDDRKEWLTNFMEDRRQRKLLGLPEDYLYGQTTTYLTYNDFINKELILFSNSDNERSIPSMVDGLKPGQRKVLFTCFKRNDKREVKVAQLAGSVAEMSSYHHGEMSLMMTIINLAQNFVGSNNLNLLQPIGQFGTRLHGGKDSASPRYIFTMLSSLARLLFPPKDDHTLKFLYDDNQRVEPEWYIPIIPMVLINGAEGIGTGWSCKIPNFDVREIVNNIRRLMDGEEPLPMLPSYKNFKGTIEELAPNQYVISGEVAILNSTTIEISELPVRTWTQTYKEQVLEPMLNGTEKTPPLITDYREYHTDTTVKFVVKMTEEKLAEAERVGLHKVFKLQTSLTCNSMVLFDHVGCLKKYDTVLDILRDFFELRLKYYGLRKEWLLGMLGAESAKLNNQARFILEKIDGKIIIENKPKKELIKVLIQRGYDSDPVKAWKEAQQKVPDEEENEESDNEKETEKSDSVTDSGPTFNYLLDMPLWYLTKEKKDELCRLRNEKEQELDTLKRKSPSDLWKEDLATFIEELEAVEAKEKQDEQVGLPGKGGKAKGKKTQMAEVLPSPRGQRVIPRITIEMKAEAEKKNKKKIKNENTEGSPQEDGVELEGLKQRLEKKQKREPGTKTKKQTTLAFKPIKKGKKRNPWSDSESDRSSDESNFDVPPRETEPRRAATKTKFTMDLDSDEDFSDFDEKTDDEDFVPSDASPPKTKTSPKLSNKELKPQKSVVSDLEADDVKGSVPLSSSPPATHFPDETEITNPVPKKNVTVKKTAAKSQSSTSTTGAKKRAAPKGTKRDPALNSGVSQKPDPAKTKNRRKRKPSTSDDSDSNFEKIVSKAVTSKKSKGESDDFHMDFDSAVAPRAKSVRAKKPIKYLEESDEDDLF

`COc1cc(O)c2c(=O)cc(-c3ccc(OC)c(OC)c3)oc2c1`: in the assay on P388 [1], the result was inactive. Further, in the assay with KB, the IC50 amounted to 19.4 µg/mL (≈ 59.1 µM).
For the molecule `COc1cc(O)c2c(=O)cc(-c3cc(OC)c(O)c(OC)c3)oc2c1`, the result in the assay on P388 [1] and in the assay listed under Bos taurus [3] was inactive. The IC50 in the assay with KB was 7.7 µg/mL (≈ 22.4 µM). In addition, in the assay filed under Bos taurus [2], the MED turned out to be 1 µg/mL.
On to `O=c1c(O)c(-c2cc(O)c(O)c(O)c2)oc2cc(O)cc(O)c12`, for which the outcome in assay [4] and in assay [5] was Active.
On to `O=c1c(O)c(-c2ccc(O)c(O)c2)oc2cc(O)cc(O)c12`, for which the outcome in assay [4] and in assay [5] was Active.
As to `O=c1c(O)c(-c2ccc(O)c(O)c2)oc2cc(O)ccc12`, the outcome in assay [4] and in assay [5] was Active.
As to `CC[C@@]1(O)C(=O)OCc2c1cc1n(c2=O)Cc2cc3ccccc3nc2-1` [CAMPTOTHECIN], inhibition with KB was half-maximal at 0.01 µg/mL (≈ 0.0287 µM) (IC50). The MED in the assay filed under Bos taurus [2] turned out to be 0.03 µg/mL.
The molecule `COc1ccc(-c2oc3cc(O)c(OC)c(O)c3c(=O)c2OC)cc1O` [CENTAUREIDIN] had an IC50 in the assay on KB of 0.04 µg/mL (≈ 0.111 µM).
Take `COc1cc(O)c2c(=O)cc(-c3cc(OC)c(OC)c(OC)c3)oc2c1` [CORYMBOSIN]: the result in the assay on P388 [1] was inactive. In addition, 19.4 µg/mL (≈ 54.1 µM) corresponded to half-maximal inhibition with KB (IC50).
As to `COc1cccc2c1C(=O)c1c(O)c3c(c(O)c1C2=O)C[C@@](O)(C(=O)CO)C[C@@H]3O[C@H]1C[C@H](N)[C@H](O)[C@H](C)O1` [DOXORUBICIN], the half-inhibitory concentration (IC50) worked out at 0.005 µg/mL (≈ 0.0092 µM) in the assay with P388 [6] and 1.5 µg/mL (≈ 2.76 µM) with KB.
With `COc1cc(O)c2c(=O)cc(-c3ccc(O)cc3)oc2c1` [GENKWANIN], the results for the IC50 in the assay on P388 [6] and in the assay on KB were 10 µg/mL (≈ 35.2 µM) and 8.7 µg/mL (≈ 30.6 µM), respectively. Moreover, the MED in the assay listed under Bos taurus [2] was above 10 µg/mL.
As to `COc1cc(O)c2c(=O)cc(-c3cc(O)c(OC)c(OC)c3)oc2c1` [LETHEDOCIN], the result in the assay with P388 [1] was inactive. This molecule yielded an IC50 in the assay on KB of 16.4 µg/mL (≈ 47.6 µM).
The molecule `COc1cc(O)c2c(=O)cc(-c3ccc(O)c(OC)c3)oc2c1` [VELUTIN] had an IC50 in the assay with P388 [6] of 10 µg/mL (≈ 31.8 µM). The MED in the assay listed under Bos taurus [2] stood at 0.1 µg/mL. Besides, in the assay listed under Bos taurus [3], the outcome was inactive.

Usually IC50 stands for the concentration that gives 50% inhibition. A lower IC50 goes with higher potency.
